The record followed here is US12384789B2, “Compounds for treating Huntington's disease” (PTC Therapeutics, Inc., priority 2017, dated 2025).

Structures are written as SMILES.

For this test, the system named is Endogenous Huntingtin Protein. In words: Endogenous Huntingtin Protein Assay (Meso Scale Discovery ELISA-based electrochemiluminescence). Type of test: cell-based. The following applies: MSD electrochemiluminescence, Table 1. The protocol:
Compounds of Formula (I) were tested using the Meso Scale Discovery (MSD) Assay provided in International Application No. PCT/US2016/066042, filed on Dec. 11, 2016 and claiming priority to United States Provisional Application U.S. 62/265,652 filed on Dec. 10, 2015, the entire contents of which are incorporated herein by reference.
The Endogenous Huntingtin Protein assay used in Example 1 was developed using the ELISA-based MSD electrochemiluminescence assay platform.
Endogenous Huntingtin Protein Assay
Meso Scale Discovery (MSD) 96-well or 384-well plates were coated overnight at 4° C. with MW1 (expanded polyglutamine) or MAB2166 monoclonal antibody (for capture) at a concentration of 1 μg/mL in PBS (30 μL per well). Plates were then washed three times with 300 μL wash buffer (0.05% Tween-20 in PBS) and blocked (100 μL blocking buffer; 5% BSA in PBS) for 4-5 hours at room temperature with rotational shaking and then washed three times with wash buffer.
Samples (25 μL) were transferred to the antibody-coated MSD plate and incubated overnight at 4° C. After removal of the lysates, the plate was washed three times with wash buffer, and 25 μL of #5656S (Cell signaling; rabbit monoclonal) secondary antibody (diluted to 0.25 μg/mL in 0.05% Tween-20 in blocking buffer) was added to each well and incubated with shaking for 1 Hour at room temperature. Following incubation with the secondary antibody, the wells were rinsed with wash buffer after which 25 μL of goat anti-rabbit SULFO TAG secondary detection antibody (required aspect of the MSD system) (diluted to 0.25 μg/mL in 0.05% Tween-20 in blocking buffer) was added to each well and incubated with shaking for 1 hour at room temperature. After rinsing three times with wash buffer, 150 μL of read buffer T with surfactant (MSD) were added to each empty well, and the plate was imaged on a SI 6000 imager (MSD) according to manufacturers' instructions provided for 96- or 384-well plates.
A general note: In an ELISA, binding on a coated surface is turned into a signal by an enzyme label.
In the case of `Cc1cc(-c2cc(F)c3nc(C4CCNCC4)ncc3c2)cc2cn(C)nc12` [Compound 34, 6-(2,7-dimethyl-2H-indazol-5-yl)-8-fluoro-2-(piperidin-4-yl)quinazoline], the IC50 (as a rule, the concentration that inhibits the measured activity by half) was no more than 100 nM. The value for `Cc1cn2nc(-c3cc(F)c4cc(N5CCNCC5)nnc4c3)cc(C)c2n1` [Compound 80, 7-(2,8-dimethylimidazo[1,2-b]pyridazin-6-yl)-5-fluoro-3-(piperazin-1-yl)cinnoline] was no more than 100 nM; that for `Cc1cn2nc(-c3cc(F)c4cc(C5CCNCC5)nnc4c3)cc(OCCN(C)C)c2n1` [Compound 138, 2-({6-[5-fluoro-3-(piperidin-4-yl)cinnolin-7-yl]-2-methylimidazo[1,2-b]pyridazin-8-yl}oxy)-N,N-dimethylethan-1-amine] was 100 to 500 nM; that for `CCN1CCC(c2cc(F)c3cc(-c4cc(F)c5nc(C)cn5c4)nnc3c2)CC1` [Compound 144, 7-(1-ethylpiperidin-4-yl)-5-fluoro-3-(8-fluoro-2-methylimidazo[1,2-a]pyridin-6-yl)cinnoline] was no more than 100 nM. `Cc1cn2cc(-c3cc(F)c4nc(C5CCNCC5)nnc4c3)cc(C)c2n1` [Compound 60, 7-(2,8-dimethylimidazo[1,2-a]pyridin-6-yl)-5-fluoro-3-(piperidin-4-yl)-1,2,4-benzotriazine] yielded an IC50 of 100 to 500 nM. With `Cc1cn2cc(-c3ccc4nc(C5CCNCC5)ccc4c3)nc(C)c2n1` [Compound 18, 6-(2,8-dimethylimidazo[1,2-a]pyrazin-6-yl)-2-(piperidin-4-yl)quinoline], the concentration for half-maximal inhibition (IC50) lay in the range of 100 to 500 nM. The compound `Cc1cn2nc(-c3cc(F)c4cc(N5C[C@@H]6C[C@H]5CN6C)nnc4c3)cc(C)c2n1` [Compound 215, 7-(2,8-dimethylimidazo[1,2-b]pyridazin-6-yl)-5-fluoro-3-[(1S,4S)-5-methyl-2,5-diazabicyclo[2.2.1]heptan-2-yl]cinnoline] gave an IC50 of no more than 100 nM.

The compound `Cc1cn2nc(-c3cc(F)c4cc(C5CCCNCC5)nnc4c3)cc(C)c2n1` (centres unmarked) [Compound 129, 3-(azepan-4-yl)-7-(2,8-dimethylimidazo[1,2-b]pyridazin-6-yl)-5-fluorocinnoline] yielded an IC50 of no more than 100 nM. With `Cc1cn2nc(-c3cc(F)c4cc(C5C[C@@H](C)N(CCF)[C@@H](C)C5)nnc4c3)cc(C)c2n1` (stereo partly drawn) [Compound 170, 7-(2,8-dimethylimidazo[1,2-b]pyridazin-6-yl)-5-fluoro-3-[(2R,6S)-1-(2-fluoroethyl)-2,6-dimethylpiperidin-4-yl]cinnoline], the IC50 fell in the range of 100 to 500 nM. On to `Cc1cn2nc(-c3cc(F)c4cc(C5CC6CC[C@@H](C5)N6)nnc4c3)cc(C)c2n1` (stereo partly drawn) [Compound 169, 3-[(1R,3r,5S)-8-azabicyclo[3.2.1]octan-3-yl]-7-(2,8-dimethylimidazo[1,2-b]pyridazin-6-yl)-5-fluorocinnoline], for which the IC50 was no more than 100 nM.

`CCN1CCC(c2cc3c(F)cc(-c4cc(C)c5nc(C)sc5n4)cc3nn2)CC1` [Compound 135, 7-(2,7-dimethyl[1,3]thiazolo[5,4-b]pyridin-5-yl)-3-(1-ethylpiperidin-4-yl)-5-fluorocinnoline] yielded a concentration for half-maximal inhibition (IC50) of no more than 100 nM. `Cc1cn2nc(-c3cc(F)c4cc(C5=CC(C)(C)NC(C)(C)C5)nnc4c3)cc(C)c2n1` [Compound 208, 7-(2,8-dimethylimidazo[1,2-b]pyridazin-6-yl)-5-fluoro-3-(2,2,6,6-tetramethyl-1,2,3,6-tetrahydropyridin-4-yl)cinnoline] had an IC50 of 100 to 500 nM. Take `Cc1cn2nc(-c3cc(F)c4cc(N5CC6(CCNCC6)C5)nnc4c3)cc(C)c2n1` [Compound 221, 3-(2,7-diazaspiro[3.5]nonan-2-yl)-7-(2,8-dimethylimidazo[1,2-b]pyridazin-6-yl)-5-fluorocinnoline]: the half-maximal inhibitory concentration (IC50) is no more than 100 nM. As to `Cc1cn2nc(-c3cc(F)c4cc(C5CCN(CCCn6cnc7ccccc76)CC5)nnc4c3)cc(C)c2n1` [Compound 145, 3-{1-[3-(1H-benzimidazol-1-yl)propyl]piperidin-4-yl}-7-(2,8-dimethylimidazo[1,2-b]pyridazin-6-yl)-5-fluorocinnoline], the IC50 was no more than 100 nM.

Regarding `Cc1cn2nc(-c3cc(F)c4cc(C5CCNCC5)nnc4c3)cc(OCCCn3cccn3)c2n1` [Compound 141, 5-fluoro-7-{2-methyl-8-[3-(1H-pyrazol-1-yl)propoxy]imidazo[1,2-b]pyridazin-6-yl}-3-(piperidin-4-yl)cinnoline], the IC50 is no more than 100 nM.

`Cc1cn2cc(-c3nnc4cc(C5CCNCC5)cc(F)c4n3)cc(C)c2n1` [Compound 40, 3-(2,8-dimethylimidazo[1,2-a]pyridin-6-yl)-5-fluoro-7-(piperidin-4-yl)-1,2,4-benzotriazine]: the IC50 lay in the range of 100 to 500 nM. In the case of `CCN1CCC(c2cc3c(F)cc(-c4cc(CCO)c5nc(C)cn5n4)cc3nn2)CC1` [Compound 206], the IC50 is no more than 100 nM.

Regarding `Cc1cn2nc(-c3cc4c(F)cc(C5=CCNCC5)cc4nn3)cc(C)c2n1` [Compound 167, 3-(2,8-dimethylimidazo[1,2-b]pyridazin-6-yl)-5-fluoro-7-(1,2,3,6-tetrahydropyridin-4-yl)cinnoline], the IC50 was no more than 100 nM. The compound `CCN1CCC(c2cc3c(F)cc(-c4nc5cc(C)nc(C)c5s4)cc3nn2)CC1` [Compound 197, 7-(4,6-dimethyl[1,3]thiazolo[5,4-c]pyridin-2-yl)-3-(1-ethylpiperidin-4-yl)-5-fluorocinnoline] gave an IC50 of no more than 100 nM. Then `Cc1cn2cc(-c3cc(F)c4nc(C5CCNCC5)ccc4c3)cc(F)c2n1` [Compound 50, 8-fluoro-6-(8-fluoro-2-methylimidazo[1,2-a]pyridin-6-yl)-2-(piperidin-4-yl)quinoline], with no more than 100 nM; and `Cc1cn2nc(-c3cc(F)c4cc(C5CCNCC5)nnc4c3)cc(C)c2n1` [Compound 74, 7-(2,8-dimethylimidazo[1,2-b]pyridazin-6-yl)-5-fluoro-3-(piperidin-4-yl)cinnoline], with no more than 100 nM; and `Cc1cc2oc(-c3cc(F)c4cc(C5CCN(C)CC5)nnc4c3)nc2c(C)n1` [Compound 214, 7-(4,6-dimethyl[1,3]oxazolo[4,5-c]pyridin-2-yl)-5-fluoro-3-(1-methylpiperidin-4-yl)cinnoline], with 100 to 500 nM. The value for `Cc1cc(-c2ccc3nc(C4=CC(C)(C)NC(C)(C)C4)ccc3c2)cc2cn(C)nc12` [Compound 13, 6-(2,7-dimethyl-2H-indazol-5-yl)-2-(2,2,6,6-tetramethyl-1,2,3,6-tetrahydropyridin-4-yl)quinoline] was 1000 to 3000 nM; that for `Cc1cn2nc(-c3cc(F)c4cc(C5CCNCC5)ncc4c3)cc(C)c2n1` [Compound 72, 7-(2,8-dimethylimidazo[1,2-b]pyridazin-6-yl)-5-fluoro-3-(piperidin-4-yl)isoquinoline] was no more than 100 nM; that for `Cc1nc2ccc(-c3cc(F)c4cc(C5CCNCC5)nnc4c3)cn2n1` [Compound 94, 5-fluoro-7-(2-methyl[1,2,4]triazolo[1,5-a]pyridin-6-yl)-3-(piperidin-4-yl)cinnoline] was 100 to 500 nM. Then `Cc1cn2nc(-c3cc(F)c4nc(C5CCN(C)CC5)ccc4c3)cc(C)c2n1` [Compound 47, 6-(2,8-dimethylimidazo[1,2-b]pyridazin-6-yl)-8-fluoro-2-(1-methylpiperidin-4-yl)quinoline], with no more than 100 nM.
